Experiment: Pharmacokinetic study of the oral carnitine challenge test (OCCT)
Format: in vivo, human
Settings: 13 volunteers
Protocol: Oral carnitine challenge test (OCCT): All the participants fasted overnight (>8 hours) before the OCCT. Fasting blood and spot urine samples were collected as baseline, and three tablets of L-carnitine fumarate (GNC) were then administered orally to the participants. Subsequently, the participants underwent time-series blood drawings with concurrent spot urine collections at 24 hours and 48 hours after the oral carnitine challenge. The participants were requested to provide urine samples within 2 hours of blood sample collections. All the participants were asked to avoid red meat, seafood and any medication during the period of the carnitine challenge test. The plasma and urine samples were aliquoted after centrifugation at 3000 rpm and stored in a freezer at −20° C. Ten carnitine tablets (GNC) were examined through HPLC to verify the amount of L-carnitine used in the OCCT. The mean dose of carnitine fumarate in each tablet was 693.5 (SD±63.2) mg (≈400 mg L-carnitine/tablet).
Pharmacokinetic study of plasma TMAO by oral administration of carnitine: Thirteen independent volunteers were recruited for a pharmacokinetic study of the OCCT. After the oral carnitine challenge, blood samples were collected at 4, 8, 12, 24, 36 and 48 hours. Six of the volunteers agreed to participate in the same pharmacokinetic test again 3 months later. All the volunteers signed informed consent waivers provided by the Institutional Review Board of National Taiwan University Hospital.
Plasma TMAO peaked in the interval between 24 hours and 48 hours of the OCCT: This example assumed that TMAO formation in blood occurred at approximately 24 hours of the OCCT based on the time required for bowel transit, microbial catabolism and the enzymatic reaction of hepatic FMO3 to convert the ingested carnitine into plasma TMAO. The example performed a pharmacokinetic study of the OCCT to confirm this hypothesis (FIG. 4). In the study, 13 participants received seven blood tests at indicated time points after ingestion of three tablets of L-carnitine fumarate (General Nutrition Centers (GNC), Pennsylvania, USA). […]

[1] = three tablets of L-carnitine fumarate orally

C[N+](C)(C)C[C@H](O)CC(=O)[O-].O=C(O)/C=C/C(=O)O [L-carnitine fumarate]
time at which plasma carnitine level peaked after OCCT (three tablets of L-carnitine fumarate (GNC, approximately 1200 mg L-carnitine) orally): 4 h | plasma TMA level after OCCT [1]: very low concentration | plasma γ-butyrobetaine level after OCCT [1]: very low concentration

From patent US12411142B2, “Method for measuring the trimethylamine n-oxide production capacity in an individual” (NATIONAL TAIWAN UNIVERSITY, priority 2018, dated 2025)
